Test results as given in patent US10875858B2, “Process for preparing halogenated pyridine derivatives” (Bayer CropScience Aktiengesellschaft, priority 2016, dated 2020).

assay: log P by HPLC-MS; format: physicochemical

Row | Compound | chromatographic logP
1 | COC(=O)c1ccc(F)c(-c2nc3cc(C(F)(F)F)nnc3n2C)n1 [Example 7, methyl 5-fluoro-6-[7-methyl-3-(trifluoromethyl)-7H-imidazo[4,5-c]pyridazin-6-yl]pyridine-2-carboxylate] | 2.09
2 | Cn1c(-c2nc(Br)ccc2F)nc2cc(C(F)(F)F)nnc21 [Example 8, 6-(6-bromo-3-fluoropyridin-2-yl)-7-methyl-3-(trifluoromethyl)-7H-imidazo[4,5-c]pyridazine] | 2.58
3 | Cn1c(-c2nc(Cl)ccc2F)nc2cc(C(F)(F)F)nnc21 [Example 6, 6-(6-chloro-3-fluoropyridin-2-yl)-7-methyl-3-(trifluoromethyl)-7H-imidazo[4,5-c]pyridazine] | 2.46
4 | Cn1cnc2cc(C(F)(F)F)nnc21 [Example 5, 7-methyl-3-(trifluoromethyl)-7H-imidazo[4,5-c]pyridazine] | 0.95

Continued, values first:

Row | chromatographic logP | Compound
5 | 2.51 | Cn1c(-c2nc(Br)ccc2F)nc2cc(C(F)(F)F)ncc21 [Example 4, 2-(6-bromo-3-fluoropyridin-2-yl)-3-methyl-6-(trifluoromethyl)-3H-imidazo[4,5-c]pyridine]
6 | 2.38 | Cn1c(-c2nc(Cl)ccc2F)nc2cc(C(F)(F)F)ncc21 [Example 2, 2-(6-chloro-3-fluoropyridin-2-yl)-3-methyl-6-(trifluoromethyl)-3H-imidazo[4,5-c]pyridine]
7 | 2.03 | COC(=O)c1ccc(F)c(-c2nc3cc(C(F)(F)F)ncc3n2C)n1 [Example 3, methyl 5-fluoro-6-[3-methyl-6-(trifluoromethyl)-3H-imidazo[4,5-c]pyridin-2-yl]pyridine-2-carboxylate]
